Source: patent US20100204182A1, “ECTONUCLEOTIDASE INHIBITORS” (RHEINISCHE FRIEDRICH-WILHELMS-UNIVERSITAT BONN, priority 2006, published 2010)

Key:
[1] = target: T1, rat NTPDase1 (Rattus norvegicus, UniProt P97687); test: Rat NTPDase1 inhibition, in-capillary electrophoresis method (standard compounds); type: biochemical; settings: read-out: NTPDase1 Ki ± SEM
T1 sequence (P97687 1-511): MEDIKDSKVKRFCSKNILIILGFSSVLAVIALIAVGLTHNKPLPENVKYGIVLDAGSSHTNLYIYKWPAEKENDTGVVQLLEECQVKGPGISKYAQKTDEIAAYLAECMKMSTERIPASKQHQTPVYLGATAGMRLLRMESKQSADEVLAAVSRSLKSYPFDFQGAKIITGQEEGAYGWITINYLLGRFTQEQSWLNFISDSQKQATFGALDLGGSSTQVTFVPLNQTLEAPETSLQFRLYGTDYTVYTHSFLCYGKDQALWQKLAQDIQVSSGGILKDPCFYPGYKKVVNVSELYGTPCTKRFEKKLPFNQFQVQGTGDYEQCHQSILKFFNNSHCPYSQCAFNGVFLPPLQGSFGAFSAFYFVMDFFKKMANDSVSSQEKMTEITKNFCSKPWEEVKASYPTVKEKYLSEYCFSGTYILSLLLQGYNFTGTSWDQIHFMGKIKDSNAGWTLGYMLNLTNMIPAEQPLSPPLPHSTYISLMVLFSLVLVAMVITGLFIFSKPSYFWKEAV

[2] = target: T2, rat NTPDase2 (Rattus norvegicus, UniProt O35795); test: Rat NTPDase2 inhibition, in-capillary electrophoresis method (standard compounds); type: biochemical; settings: read-out: NTPDase2 Ki ± SEM
T2 sequence (O35795 1-495): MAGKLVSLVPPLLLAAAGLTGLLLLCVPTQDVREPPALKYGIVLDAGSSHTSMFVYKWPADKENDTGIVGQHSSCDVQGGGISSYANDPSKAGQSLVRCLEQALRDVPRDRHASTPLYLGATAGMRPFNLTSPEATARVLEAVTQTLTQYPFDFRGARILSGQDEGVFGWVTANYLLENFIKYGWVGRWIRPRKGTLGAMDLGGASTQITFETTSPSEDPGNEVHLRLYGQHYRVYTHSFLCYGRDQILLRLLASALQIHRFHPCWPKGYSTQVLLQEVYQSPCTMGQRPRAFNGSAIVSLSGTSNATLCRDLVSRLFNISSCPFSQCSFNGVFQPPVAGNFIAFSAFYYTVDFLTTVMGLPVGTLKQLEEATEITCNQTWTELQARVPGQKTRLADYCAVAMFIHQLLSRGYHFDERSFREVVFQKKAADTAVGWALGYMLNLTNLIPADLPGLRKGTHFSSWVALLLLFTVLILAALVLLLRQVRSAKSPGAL

[3] = target: T3, rat NTPDase3 (Rattus norvegicus, UniProt A6I415); test: Rat NTPDase3 inhibition, in-capillary electrophoresis method (standard compounds); type: biochemical; settings: read-out: NTPDase3 Ki ± SEM
T3 sequence (A6I415 1-529): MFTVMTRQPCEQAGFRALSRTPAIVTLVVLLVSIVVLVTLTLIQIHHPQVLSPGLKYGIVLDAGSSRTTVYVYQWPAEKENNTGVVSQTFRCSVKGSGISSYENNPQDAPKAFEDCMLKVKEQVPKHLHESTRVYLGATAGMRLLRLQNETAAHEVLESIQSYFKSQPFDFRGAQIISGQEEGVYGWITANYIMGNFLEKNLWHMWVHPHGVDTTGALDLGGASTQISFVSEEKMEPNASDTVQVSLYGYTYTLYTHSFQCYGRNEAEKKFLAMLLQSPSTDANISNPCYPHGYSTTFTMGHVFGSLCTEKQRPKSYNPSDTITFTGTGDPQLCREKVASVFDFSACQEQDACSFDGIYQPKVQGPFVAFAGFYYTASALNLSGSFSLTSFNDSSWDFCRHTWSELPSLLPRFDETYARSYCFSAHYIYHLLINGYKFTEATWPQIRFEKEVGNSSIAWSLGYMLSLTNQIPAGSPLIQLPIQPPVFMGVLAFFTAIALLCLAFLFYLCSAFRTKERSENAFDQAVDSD

[4] = target: P2Y2 (Homo sapiens, UniProt P41231); test: Potency of standard compounds at P2Y2 receptor; settings: SEM not given
P2Y2, sequence (P41231 whole entry, species assumed): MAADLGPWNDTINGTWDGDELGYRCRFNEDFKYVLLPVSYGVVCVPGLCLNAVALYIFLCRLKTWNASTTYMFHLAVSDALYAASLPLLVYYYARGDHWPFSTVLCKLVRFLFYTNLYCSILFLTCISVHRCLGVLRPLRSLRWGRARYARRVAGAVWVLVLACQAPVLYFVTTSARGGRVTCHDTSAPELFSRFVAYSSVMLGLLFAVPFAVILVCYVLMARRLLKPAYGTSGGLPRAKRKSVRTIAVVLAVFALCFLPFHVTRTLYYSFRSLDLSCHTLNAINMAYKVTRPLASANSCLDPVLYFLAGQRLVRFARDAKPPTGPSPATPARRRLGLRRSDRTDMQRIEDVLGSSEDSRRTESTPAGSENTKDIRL

[5] = target: P2Y4 (Homo sapiens, UniProt P51582); test: Potency of standard compounds at P2Y4 receptor
P2Y4, sequence (P51582 whole entry, species assumed): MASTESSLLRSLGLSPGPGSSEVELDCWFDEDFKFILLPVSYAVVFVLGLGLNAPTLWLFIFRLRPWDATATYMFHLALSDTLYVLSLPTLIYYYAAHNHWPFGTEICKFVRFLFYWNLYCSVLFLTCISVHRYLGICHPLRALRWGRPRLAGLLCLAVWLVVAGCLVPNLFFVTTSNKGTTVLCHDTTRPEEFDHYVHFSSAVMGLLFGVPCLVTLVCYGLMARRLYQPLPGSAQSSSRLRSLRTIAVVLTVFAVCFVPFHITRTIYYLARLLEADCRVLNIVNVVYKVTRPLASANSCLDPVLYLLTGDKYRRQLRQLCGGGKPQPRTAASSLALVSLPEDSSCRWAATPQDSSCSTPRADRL

[6] = target: P2Y6 (Homo sapiens, UniProt Q15077); test: Potency of standard compounds at P2Y6 receptor; settings: for Ki: standard compounds, SEM not given
P2Y6, sequence (Q15077 whole entry, species assumed): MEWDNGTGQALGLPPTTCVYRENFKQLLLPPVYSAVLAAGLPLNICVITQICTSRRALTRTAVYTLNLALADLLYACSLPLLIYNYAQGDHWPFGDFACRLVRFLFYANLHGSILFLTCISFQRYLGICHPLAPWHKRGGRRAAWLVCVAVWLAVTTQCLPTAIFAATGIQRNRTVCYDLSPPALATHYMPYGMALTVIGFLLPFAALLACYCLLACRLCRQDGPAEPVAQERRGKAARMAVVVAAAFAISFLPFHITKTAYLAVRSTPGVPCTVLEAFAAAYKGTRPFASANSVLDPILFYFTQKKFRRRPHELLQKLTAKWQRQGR

[7] = target: P2X2 (Homo sapiens, UniProt Q9UBL9); settings: standard inhibitors; reference mark 15; read-out: P2X2 Ki ± SEM; cited from earlier work
P2X2, sequence (Q9UBL9 whole entry, species assumed): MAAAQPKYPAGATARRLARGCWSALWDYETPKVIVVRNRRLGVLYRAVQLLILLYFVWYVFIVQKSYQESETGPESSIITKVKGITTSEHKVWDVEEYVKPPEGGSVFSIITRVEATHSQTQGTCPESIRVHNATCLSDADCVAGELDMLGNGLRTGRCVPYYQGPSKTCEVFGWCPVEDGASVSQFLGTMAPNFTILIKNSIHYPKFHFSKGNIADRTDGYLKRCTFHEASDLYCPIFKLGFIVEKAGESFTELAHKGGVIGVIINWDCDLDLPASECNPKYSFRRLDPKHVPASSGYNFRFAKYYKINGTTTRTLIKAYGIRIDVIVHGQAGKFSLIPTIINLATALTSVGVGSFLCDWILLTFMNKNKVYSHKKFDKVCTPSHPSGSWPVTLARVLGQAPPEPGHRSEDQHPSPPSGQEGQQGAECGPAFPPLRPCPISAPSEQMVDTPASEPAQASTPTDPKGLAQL

[8] = target: P2X5 (Homo sapiens, UniProt Q93086); settings: standard inhibitors; reference mark 15; read-out: P2X5 Ki ± SEM; cited from earlier work
P2X5, sequence (Q93086 whole entry, species assumed): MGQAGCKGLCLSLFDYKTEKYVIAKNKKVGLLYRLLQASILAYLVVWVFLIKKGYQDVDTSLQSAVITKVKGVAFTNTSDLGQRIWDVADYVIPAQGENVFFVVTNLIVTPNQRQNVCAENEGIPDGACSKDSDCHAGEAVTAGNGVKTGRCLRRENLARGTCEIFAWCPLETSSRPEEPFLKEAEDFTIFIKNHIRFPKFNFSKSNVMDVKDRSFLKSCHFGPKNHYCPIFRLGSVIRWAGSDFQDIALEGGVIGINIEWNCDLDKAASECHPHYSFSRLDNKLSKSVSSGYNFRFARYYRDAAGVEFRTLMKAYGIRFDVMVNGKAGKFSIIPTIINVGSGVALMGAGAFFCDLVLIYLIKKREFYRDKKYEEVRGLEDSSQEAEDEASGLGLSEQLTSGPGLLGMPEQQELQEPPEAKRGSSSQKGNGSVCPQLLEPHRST

[9] = test system: ecto-nucleotide pyrophosphatases (E-NPP); settings: in words; cited from earlier work
[10] = target: P2X1 (Homo sapiens, UniProt P51575); settings: standard inhibitors; reference mark 15; read-out: P2X1 Ki ± SEM; cited from earlier work
P2X1, sequence (P51575 whole entry, species assumed): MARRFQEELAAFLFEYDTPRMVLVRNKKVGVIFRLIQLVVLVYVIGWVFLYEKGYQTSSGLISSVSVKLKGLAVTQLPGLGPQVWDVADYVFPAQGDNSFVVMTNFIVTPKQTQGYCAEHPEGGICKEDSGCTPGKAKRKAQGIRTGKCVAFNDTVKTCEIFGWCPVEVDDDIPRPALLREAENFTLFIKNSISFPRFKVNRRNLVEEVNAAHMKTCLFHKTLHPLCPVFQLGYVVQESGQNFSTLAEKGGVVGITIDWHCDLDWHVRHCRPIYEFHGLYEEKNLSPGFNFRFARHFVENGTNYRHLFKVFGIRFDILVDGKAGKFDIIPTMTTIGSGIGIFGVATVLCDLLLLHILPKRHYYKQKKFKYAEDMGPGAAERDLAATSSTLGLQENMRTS

[11] = target: P2Y12 (Homo sapiens, UniProt Q9H244); test: Potency of standard compounds at P2Y12 receptor; settings: SEM not given
P2Y12, sequence (Q9H244 whole entry, species assumed): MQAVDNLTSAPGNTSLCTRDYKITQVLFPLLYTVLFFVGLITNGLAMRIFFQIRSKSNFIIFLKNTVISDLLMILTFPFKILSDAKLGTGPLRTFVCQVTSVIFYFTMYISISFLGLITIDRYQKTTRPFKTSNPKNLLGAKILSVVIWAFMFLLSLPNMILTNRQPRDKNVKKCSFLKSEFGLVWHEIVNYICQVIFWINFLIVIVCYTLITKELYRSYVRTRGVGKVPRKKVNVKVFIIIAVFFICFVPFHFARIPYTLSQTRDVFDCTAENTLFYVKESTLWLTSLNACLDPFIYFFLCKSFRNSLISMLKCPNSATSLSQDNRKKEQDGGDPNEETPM

[12] = target: P2X3 (Homo sapiens, UniProt P56373); settings: standard inhibitors; reference mark 15; read-out: P2X3 Ki ± SEM; cited from earlier work
P2X3, sequence (P56373 whole entry, species assumed): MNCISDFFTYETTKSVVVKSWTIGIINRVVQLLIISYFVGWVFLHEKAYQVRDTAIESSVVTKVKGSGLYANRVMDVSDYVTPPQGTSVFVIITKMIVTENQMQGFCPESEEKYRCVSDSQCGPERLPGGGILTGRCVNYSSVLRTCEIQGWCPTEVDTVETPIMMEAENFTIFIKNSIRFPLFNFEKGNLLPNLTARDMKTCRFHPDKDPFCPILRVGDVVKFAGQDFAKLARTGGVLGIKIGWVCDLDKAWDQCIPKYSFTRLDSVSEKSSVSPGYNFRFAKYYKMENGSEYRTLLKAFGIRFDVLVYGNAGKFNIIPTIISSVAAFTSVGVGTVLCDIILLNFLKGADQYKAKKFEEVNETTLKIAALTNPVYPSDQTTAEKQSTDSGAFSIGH

[13] = target: T4, human NTPDase1 (Homo sapiens, UniProt P49961); test: NTPDase inhibition assay by capillary electrophoresis (CE), NTPDase1; type: biochemical; settings: CE method, ATP 320 μM, Km 17 μM, read-out: NTPDase1 Ki [μM] ± SEM
T4 sequence (P49961 1-510): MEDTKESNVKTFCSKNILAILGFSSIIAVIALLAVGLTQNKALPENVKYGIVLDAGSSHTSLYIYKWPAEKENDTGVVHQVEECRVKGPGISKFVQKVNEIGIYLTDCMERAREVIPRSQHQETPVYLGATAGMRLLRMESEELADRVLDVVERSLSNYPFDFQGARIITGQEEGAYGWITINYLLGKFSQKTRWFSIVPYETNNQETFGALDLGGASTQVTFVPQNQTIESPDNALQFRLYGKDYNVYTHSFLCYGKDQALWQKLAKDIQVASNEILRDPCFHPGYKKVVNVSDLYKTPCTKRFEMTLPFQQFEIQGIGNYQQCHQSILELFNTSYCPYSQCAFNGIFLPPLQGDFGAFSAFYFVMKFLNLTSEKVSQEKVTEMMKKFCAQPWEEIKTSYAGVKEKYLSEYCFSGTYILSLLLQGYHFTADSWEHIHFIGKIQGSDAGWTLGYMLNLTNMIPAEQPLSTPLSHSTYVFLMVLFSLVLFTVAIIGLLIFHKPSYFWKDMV
In short: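 Recombinant or native human NTPDase was run with 320 μM ATP in Hepes buffer pH 7.4 (NaCl, KCl, MgCl2, CaCl2) at 37° C for 15 min, stopped by heating at 99° C. Products were quantified by capillary electrophoresis (UV 210 nm, UMP internal standard). IC50 from 6-8 concentrations was converted to Ki by Cheng-Prusoff.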

[14] = target: T5, human NTPDase2 (Homo sapiens, UniProt Q9Y5L3); test: NTPDase inhibition assay by capillary electrophoresis (CE), NTPDase2; type: biochemical; settings: for inhibition at 1000 µM: read-out: NTPDase2 inhibition (%) at 1 mM
T5 sequence (Q9Y5L3 1-495): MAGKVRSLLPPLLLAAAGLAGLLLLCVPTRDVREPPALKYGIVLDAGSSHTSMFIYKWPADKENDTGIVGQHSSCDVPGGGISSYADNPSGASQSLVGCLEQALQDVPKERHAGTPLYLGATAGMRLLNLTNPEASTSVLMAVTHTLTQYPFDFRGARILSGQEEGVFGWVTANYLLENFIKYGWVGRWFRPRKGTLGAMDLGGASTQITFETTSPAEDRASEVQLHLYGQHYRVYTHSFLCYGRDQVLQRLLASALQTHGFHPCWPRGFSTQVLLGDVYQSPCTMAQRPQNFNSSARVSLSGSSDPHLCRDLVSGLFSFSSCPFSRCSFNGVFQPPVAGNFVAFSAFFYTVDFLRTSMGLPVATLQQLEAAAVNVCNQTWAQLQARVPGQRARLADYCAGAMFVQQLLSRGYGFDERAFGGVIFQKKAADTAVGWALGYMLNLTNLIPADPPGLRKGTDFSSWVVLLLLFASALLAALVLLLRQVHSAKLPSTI

[15] = target: hP2Y2 (Homo sapiens, UniProt P41231); test: Inhibition of UTP binding at hP2Y2; settings: read-out: hP2Y2 % inhibition of UTP binding at 100 μM, n = 3, mean ± SEM
hP2Y2, sequence (P41231 whole entry): as the sequence (P41231 whole entry, species assumed) above
Method: (§1) In table 2 inhibition data of selected examples at human P2Y receptor subtypes were collected. It can be seen that no compound was identified that inhibited P2Y receptors at high concentrations of 100 μM and 10 μM, respectively.

[16] = target: hP2Y4 (Homo sapiens, UniProt P51582); test: Inhibition of UTP binding at hP2Y4; settings: read-out: hP2Y4 % inhibition of UTP binding at 100 μM, n = 3, mean ± SEM
hP2Y4, sequence (P51582 whole entry): as the sequence (P51582 whole entry, species assumed) above
Method: as §1

[17] = target: rP2Y6 (Rattus norvegicus, UniProt Q63371); test: Inhibition of UDP binding at rP2Y6; settings: read-out: rP2Y6 % inhibition of UDP binding at 100 μM, n = 3, mean ± SEM
rP2Y6, sequence (Q63371 whole entry): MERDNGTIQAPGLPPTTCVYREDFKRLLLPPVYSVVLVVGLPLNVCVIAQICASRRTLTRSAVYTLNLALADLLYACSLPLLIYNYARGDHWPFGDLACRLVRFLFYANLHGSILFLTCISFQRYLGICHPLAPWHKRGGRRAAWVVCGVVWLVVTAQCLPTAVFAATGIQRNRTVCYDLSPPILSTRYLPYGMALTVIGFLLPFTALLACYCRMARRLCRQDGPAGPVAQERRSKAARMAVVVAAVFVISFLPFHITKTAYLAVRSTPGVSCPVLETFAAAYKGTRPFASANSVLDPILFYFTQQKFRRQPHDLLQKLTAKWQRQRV

[18] = target: hP2Y12 (Homo sapiens, UniProt Q9H244); test: Inhibition of [3H]PSB-0413 binding at hP2Y12; settings: mean ± SEM, read-out: hP2Y12 % Inhibition of [^3H]PSB-0413 Binding at 10 μM, n = 3
hP2Y12, sequence (Q9H244 whole entry): as the sequence (Q9H244 whole entry, species assumed) above
Method: as §1

[19] = standard compounds, SEM not given

| Compound | Ki [1] [µM] | Ki [2] [µM] | Ki [3] [µM] | Ki [4] [µM] | Ki [6] [µM] | Ki [7] [µM] | Ki [8] [µM] | Ki [10] [µM] | Ki [13] [µM] | Ki [14] [µM] | inhibition at 1000 µM [14] [%] | inhibition at 100 µM [15] [%] | inhibition at 100 µM [16] [%] | inhibition at 100 µM [17] [%] | inhibition at 10 µM [18] [%] | other results |
| --- | --- | --- | --- | --- | --- | --- | --- | --- | --- | --- | --- | --- | --- | --- | --- | --- |
| Cc1ccc(C(=O)Nc2ccc(S(=O)(=O)O)c3cc(S(=O)(=O)O)cc(S(=O)(=O)O)c23)cc1NC(=O)c1cccc(NC(=O)Nc2cccc(C(=O)Nc3cc(C(=O)Nc4ccc(S(=O)(=O)O)c5cc(S(=O)(=O)O)cc(S(=O)(=O)O)c45)ccc3C)c2)c1 [Suramin, suramin] | 300 ± 0.1 | 65.4 ± 0.01 | 12.7 ± 0.03 | 50 | > 100 | 10 | 1.6 |  |  |  |  |  |  |  |  | P2Y4 Ki ± SEM [μM] [5, 19]: inactive |
| CCN(CC)c1ncnc2c1ncn2C1OC(COP(=O)(O)OP(=O)(O)C(Br)(Br)P(=O)(O)O)C(O)C1O (stereo not drawn) [ARL67156, N^6-Diethyl-β,γ-dibromomethylene-ATP] | 27 ± 0.004 | > 600 | 112.1 ± 0.05 |  |  |  |  |  |  |  |  |  |  |  |  | metabolic stability towards ecto-nucleotide pyrophosphatases (E-NPP) [9]: metabolically unstable |
| Cc1nc(N=Nc2ccc(S(=O)(=O)O)cc2S(=O)(=O)O)c(COP(=O)(O)O)c(C=O)c1O [PPADS, pyridoxalphosphate-6-azophenyl-2′,4′-disulfonic acid] | 46 ± 0.01 | 44.2 ± 0.03 | 3 ± 0.001 |  |  |  |  | 0.13 |  |  |  |  |  |  |  | P2Y2 Ki ± SEM [μM] [4]: inactive; P2Y4 inhib. at 100 μM ([5]; 100 μM): 73%; P2Y6 inhib. at 100 μM ([6]; 100 μM): 69% |
| Nc1c(S(=O)(=O)O)cc(Nc2ccc(Nc3nc(Cl)nc(Nc4cccc(S(=O)(=O)O)c4)n3)c(S(=O)(=O)O)c2)c2c1C(=O)c1ccccc1C2=O [RB2, reactive blue 2] |  |  |  | 1 | 31 | 0.4 | 20 | 2 |  |  |  |  |  |  |  | Ki [5, 19]: > 100 µM; Ki [11]: 1.3 µM; Ki [12]: 50 µM |
| CCOP(=O)(OCC)C(NC(=O)CNC(=O)[C@H]1O[C@@H](n2ccc(=O)[nH]c2=O)C(O)C1O)P(=O)(OCC)OCC (stereo in doubt) [Compound 10, 2-[(2S,3R,4S,5R)-5-(2,4-Dioxo-3,4-dihydropyrimidin-1(2H)-yl)-3,4-dihydroxy-tetrahydrofurane-2-carboxamido]ethaneamidomethylenediphosphonic acid tetraethylester] |  |  |  |  |  |  |  |  | 93 ± 14 | ~165 | 54 | -38 ± 11 | 34 ± 15 | 8 ± 14 | 2 ± 5 |  |
| CCOP(=O)(OCC)C(NC(=O)CCCNC(=O)[C@H]1O[C@@H](n2ccc(=O)[nH]c2=O)C(O)C1O)P(=O)(OCC)OCC (stereo in doubt) [Compound 12, 4-[(2S,3R,4S,5R)-5-(2,4-Dioxo-3,4-dihydropyrimidin-1(2H)-yl)-3,4-dihydroxytetrahydrofurane-2-carboxamido]butaneamidomethylenediphosphonic acid tetraethylester] |  |  |  |  |  |  |  |  | 32.4 ± 1.1 | ~165 | 54 | -44 ± 20 | 27 ± 7 | 18 ± 4 | 1 ± 5 |  |
